Assay results published in patent publication US20080234262A1 (Wyeth, priority 2007, published 2008).
pIC50: −log10 of the molar value.

Assays:
[1] = tested on: breast line MDA468; experiment: In vitro cell culture growth assay (MTS), MDA468; format: cell-based, human; settings: MDA468 cells, three days after drug treatment
Method in brief: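 MDA468 or LNCap cells received inhibitors one day after plating and were grown for three days. Viable cell density read by MTS conversion, absorbance 490 nm, expressed as percent of control growth versus vehicle-treated cells on the same plate.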

[2] = tested on: prostate line LNCap; experiment: In vitro cell culture growth assay (MTS), LNCap; format: cell-based, human; settings: LNCap cells, three days after drug treatment
[3] = molecular target: PI3K (Homo sapiens, UniProt P42336); experiment: Fluorescence polarization assay for PI3K; format: biochemical; settings: PI3Kα; read-out: PI3Kα IC50;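 further: PI3K kinase reaction on PIP2 with ATP, 30-60 min, product sensed by GST-GRP with red probe in fluorescence polarization (mP), controls without enzyme and at zero time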
PI3K, sequence (P42336 whole entry): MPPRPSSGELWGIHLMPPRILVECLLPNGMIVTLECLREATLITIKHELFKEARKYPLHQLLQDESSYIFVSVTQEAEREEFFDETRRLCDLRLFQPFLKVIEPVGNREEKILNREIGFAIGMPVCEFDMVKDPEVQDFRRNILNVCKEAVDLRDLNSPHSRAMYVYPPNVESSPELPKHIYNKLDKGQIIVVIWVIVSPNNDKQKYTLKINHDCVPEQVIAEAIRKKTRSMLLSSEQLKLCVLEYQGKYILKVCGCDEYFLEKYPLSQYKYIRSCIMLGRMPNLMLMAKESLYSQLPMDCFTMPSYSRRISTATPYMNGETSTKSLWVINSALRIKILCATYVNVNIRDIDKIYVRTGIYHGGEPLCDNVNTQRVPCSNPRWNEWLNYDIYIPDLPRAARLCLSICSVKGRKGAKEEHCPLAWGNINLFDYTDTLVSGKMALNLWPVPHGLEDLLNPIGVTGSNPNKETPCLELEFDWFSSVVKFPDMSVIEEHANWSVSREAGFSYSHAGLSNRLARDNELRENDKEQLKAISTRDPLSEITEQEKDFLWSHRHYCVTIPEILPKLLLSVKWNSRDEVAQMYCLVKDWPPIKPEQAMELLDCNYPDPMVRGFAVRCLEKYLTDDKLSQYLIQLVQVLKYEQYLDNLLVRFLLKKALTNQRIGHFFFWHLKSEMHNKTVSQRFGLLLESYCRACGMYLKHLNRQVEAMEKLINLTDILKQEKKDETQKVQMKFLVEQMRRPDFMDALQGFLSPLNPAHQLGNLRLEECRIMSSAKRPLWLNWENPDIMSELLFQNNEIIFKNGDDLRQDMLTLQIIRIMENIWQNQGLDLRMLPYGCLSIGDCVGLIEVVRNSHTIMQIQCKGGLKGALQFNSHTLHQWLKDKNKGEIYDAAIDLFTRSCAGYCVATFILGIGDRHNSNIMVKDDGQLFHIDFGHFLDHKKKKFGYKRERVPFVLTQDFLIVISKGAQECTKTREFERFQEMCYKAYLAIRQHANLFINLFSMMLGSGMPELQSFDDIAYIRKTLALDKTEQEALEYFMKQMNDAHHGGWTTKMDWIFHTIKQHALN
PI3K, sequence (P27986 whole entry partner): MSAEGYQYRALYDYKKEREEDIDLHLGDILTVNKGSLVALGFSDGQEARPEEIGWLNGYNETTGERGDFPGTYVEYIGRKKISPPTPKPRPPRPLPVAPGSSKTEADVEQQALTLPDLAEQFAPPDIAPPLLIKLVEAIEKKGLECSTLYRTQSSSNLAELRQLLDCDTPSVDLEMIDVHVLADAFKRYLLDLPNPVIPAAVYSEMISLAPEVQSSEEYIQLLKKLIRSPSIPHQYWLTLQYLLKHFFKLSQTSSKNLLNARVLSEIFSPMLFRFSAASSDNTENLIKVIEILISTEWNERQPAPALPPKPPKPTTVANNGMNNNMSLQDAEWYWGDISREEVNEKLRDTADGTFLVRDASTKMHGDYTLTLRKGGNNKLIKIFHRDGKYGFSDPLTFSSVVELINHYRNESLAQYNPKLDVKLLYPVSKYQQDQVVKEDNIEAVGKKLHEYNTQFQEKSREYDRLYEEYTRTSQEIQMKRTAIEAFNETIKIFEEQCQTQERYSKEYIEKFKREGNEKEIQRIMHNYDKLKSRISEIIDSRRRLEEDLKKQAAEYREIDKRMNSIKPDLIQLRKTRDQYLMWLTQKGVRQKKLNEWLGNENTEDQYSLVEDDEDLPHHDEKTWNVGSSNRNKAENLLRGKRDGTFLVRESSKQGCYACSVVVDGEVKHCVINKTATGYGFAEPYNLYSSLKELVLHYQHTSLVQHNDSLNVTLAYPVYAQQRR

Row | SMILES | pIC50 ([1]; Homo sapiens, 72 h) | pIC50 ([2]; Homo sapiens, LNCaP, 72 h) | pIC50 [3] | pIC50 [1] | pIC50 [2]
1 | COC(=O)Nc1ccc(-c2nc(N3CCOCC3)c3cnn(C4CCNCC4)c3n2)cc1 [Compound 459, methyl [4-(4-morpholin-4-yl-1-piperidin-4-yl-1H-pyrazolo[3,4-d]pyrimidin-6-yl)phenyl]carbamate] | 5.52 | 5.77 | 5.97 | – | –
2 | CC1CN(c2nc(-c3cccc(O)c3)nc3c2cnn3-c2ccccc2)CCO1 (stereo not drawn) [Compound 943, 3-[4-(2-methylmorpholin-4-yl)-1-phenyl-1H-pyrazolo[3,4-d]pyrimidin-6-yl]phenol] | 5.12 | 5.72 | 6.56 | – | –
3 | c1ccc(CN2CCC(n3ncc4c(N5CCOCC5)nc(-c5ccc6cc[nH]c6c5)nc43)CC2)cc1 [Compound 49] | 5.24 | 5.68 | 5.90 | – | –
4 | CNC(=O)Nc1ccc(-c2nc(N3CCOCC3)c3cnn(C4CCN(Cc5ccccc5C)CC4)c3n2)cc1 [Example 429, 1-methyl-3-(4-{1-[1-(2-methylbenzyl)piperidin-4-yl]-4-morpholin-4-yl-1H-pyrazolo[3,4-d]pyrimidin-6-yl}phenyl)urea] | 6.70 | 7.40 | 7.29 | – | –
5 | CNC(=O)Nc1ccc(-c2nc(N3CCOCC3)c3cnn(C4CCN(Cc5cccc(C)c5)CC4)c3n2)cc1 [Example 430, 1-methyl-3-(4-{1-[1-(3-methylbenzyl)piperidin-4-yl]-4-morpholin-4-yl-1H-pyrazolo[3,4-d]pyrimidin-6-yl}phenyl)urea] | 6.70 | 7.28 | 7.38 | – | –
6 | CC(=O)Nc1cccc(-c2nc(N3CCOCC3)c3cnn(-c4ccccc4)c3n2)c1 [Compound 115] | 5.05 | 5.28 | 6.45 | – | –
7 | COC(=O)Nc1ccc(-c2nc(N3CCOCC3)c3cnn(C4CCN(Cc5ccc(F)cc5)CC4)c3n2)cc1 [Compound 694, methyl (4-{1-[1-(4-fluorobenzyl)piperidin-4-yl]-4-morpholin-4-yl-1H-pyrazolo[3,4-d]pyrimidin-6-yl}phenyl)carbamate] | – | – | 6.12 | 5.59 | 5.92
8 | CNC(=O)Nc1ccc(-c2nc(N3CCOCC3)c3cnn(C4CCN(C(=O)Nc5cccnc5)CC4)c3n2)cc1 [Compound 579, 4-(6-{4-[(methylcarbamoyl)amino]phenyl}-4-morpholin-4-yl-1H-pyrazolo[3,4-d]pyrimidin-1-yl)-N-pyridin-3-ylpiperidine-1-carboxamide] | 5.60 | 5.52 | 7.52 | – | –
9 | O=[N+]([O-])c1ccc(-c2nc(N3CCOCC3)c3cnn(-c4ccccc4)c3n2)cc1 [Compound 119] | 4.22 | 4.22 | 5.93 | – | –
10 | Nc1ccc(-c2nc(N3CCOCC3)c3cnn(C4CCN(C(=O)c5cccnc5)CC4)c3n2)nc1 [Compound 679, 6-{4-morpholin-4-yl-1-[1-(pyridin-3-ylcarbonyl)piperidin-4-yl]-1H-pyrazolo[3,4-d]pyrimidin-6-yl}pyridin-3-amine] | – | – | 5.39 | < 4.22 | 4.35
11 | c1ccc(-n2ncc3c(N4CCOCC4)nc(-c4ccc5[nH]ncc5c4)nc32)cc1 [Compound 676, 6-(1H-indazol-5-yl)-4-morpholin-4-yl-1-phenyl-1H-pyrazolo[3,4-d]pyrimidine] | – | – | 6.36 | < 4.22 | 4.70
12 | Oc1cccc(-c2nc(N3CCOCC3)c3cnn(CCN4CCNCC4)c3n2)c1 [Compound 166] | 4.82 | 5.24 | 7.35 | – | –
13 | C=CCNC(=O)Nc1ccc(-c2nc(N3CCOCC3)c3cnn(C4CCN(Cc5ccccc5)CC4)c3n2)cc1 [Compound 509, 1-allyl-3-{4-[1-(1-benzylpiperidin-4-yl)-4-morpholin-4-yl-1H-pyrazolo[3,4-d]pyrimidin-6-yl]phenyl}urea] | 5.74 | 6.60 | 6.57 | – | –
14 | CNC(=O)Nc1ccc(-c2nc(N3CCOCC3)c3cnn(C4CCN(C(=O)c5cnccc5C)CC4)c3n2)cc1 [Compound 663, 1-methyl-3-[4-(1-{1-[(4-methylpyridin-3-yl)carbonyl]piperidin-4-yl}-4-morpholin-4-yl-1H-pyrazolo[3,4-d]pyrimidin-6-yl)phenyl]urea] | – | – | 6.64 | 6.37 | 6.49
15 | c1ccc(N2CCC(n3ncc4c(N5CCOCC5)nc(-c5ccc6[nH]ccc6c5)nc43)CC2)nc1 [Compound 217, 6-(1H-indol-5-yl)-4-morpholin-4-yl-1-(1-pyridin-2-ylpiperidin-4-yl)-1H-pyrazolo[3,4-d]pyrimidine] | 5.72 | 5.92 | 5.85 | – | –
16 | COC(=O)Nc1ccc(-c2nc(N3CCOCC3)c3cnn(C4CCN(C(=O)c5ccccc5F)CC4)c3n2)cc1 [Compound 687, methyl (4-{1-[1-(2-fluorobenzoyl)piperidin-4-yl]-4-morpholin-4-yl-1H-pyrazolo[3,4-d]pyrimidin-6-yl}phenyl)carbamate] | – | – | 5.94 | 6.32 | 6.60
17 | CNC(=O)Nc1ccc(-c2nc(N3CCOCC3)c3cnn(C4CCN(CC(=O)OC)CC4)c3n2)cc1 [Compound 794, methyl [4-(6-{4-[(methylcarbamoyl)amino]phenyl}-4-morpholin-4-yl-1H-pyrazolo[3,4-d]pyrimidin-1-yl)piperidin-1-yl]acetate] | 6.30 | 6.85 | 6.90 | – | –
18 | Oc1cccc(-c2nc(N3CCOCC3)c3cnn(C4CCN(CC5CCCCC5)CC4)c3n2)c1 [Compound 17] | 5.70 | 6.51 | 6.97 | – | –
19 | c1cc(CN2CCC(n3ncc4c(N5CCOCC5)nc(-c5ccc6[nH]ccc6c5)nc43)CC2)ccn1 [Compound 179] | 5.74 | 6.22 | 6.19 | – | –
20 | CNC(=O)Nc1ccc(-c2nc(N3CCOCC3)c3cnn(C4CCN(Cc5ccccc5O)CC4)c3n2)cc1 [Example 399, 1-(4-{1-[1-(2-hydroxybenzyl)piperidin-4-yl]-4-morpholin-4-yl-1H-pyrazolo[3,4-d]pyrimidin-6-yl}phenyl)-3-methylurea] | 6.52 | 7.22 | 7.43 | – | –
21 | O=C(NCCO)Nc1ccc(-c2nc(N3CCOCC3)c3cnn(C4CCN(CCCCO)CC4)c3n2)cc1 [Compound 746, 1-(4-{1-[1-(4-hydroxybutyl)piperidin-4-yl]-4-morpholin-4-yl-1H-pyrazolo[3,4-d]pyrimidin-6-yl}phenyl)-3-(2-hydroxyethyl)urea] | 4.52 | 4.54 | 6.43 | – | –
22 | O=C(c1ncccc1O)N1CCC(n2ncc3c(N4CCOCC4)nc(-c4ccc5[nH]ccc5c4)nc32)CC1 [Example 198, 2-({4-[6-(1H-indol-5-yl)-4-morpholin-4-yl-1H-pyrazolo[3,4-d]pyrimidin-1-yl]piperidin-1-yl}carbonyl)pyridin-3-ol] | 5.40 | 6.15 | 5.78 | – | –
23 | O=C1CCC(n2ncc3c(N4CCOCC4)nc(-c4ccc5[nH]ccc5c4)nc32)CC1 [Compound 143, 4-[6-(1H-indol-5-yl)-4-morpholin-4-yl-1H-pyrazolo[3,4-d]pyrimidin-1-yl]cyclohexanone] | 5.77 | 6.74 | 6.15 | – | –
